Assay results reported in patent US10010507B1, “Pharmaceutical formulations of a bruton's tyrosine kinase inhibitor” (Pharmacyclics LLC, priority 2015, dated 2018).
pEC50: −log10 of the molar value. Where two headings read alike, the source gives them in different places.

System: OCI-Ly10
Test: Inhibition of growth of OCI-Ly10 (ABC-DLBCL cells)
Assay type: cell-based
Conditions: Homo sapiens
From the text: DLBCL cells of the ABC subtype, such as OCI-Ly10, have chronic active BCR signaling and are very sensitive to the Btk inhibitor described herein. […] In addition, induction of apoptosis, as shown by capsase activation, Annexin-V flow cytometry and increase in sub-GO fraction is observed in OCILy 10. Both sensitive and resistant cells express Btk at similar levels, and the active site of Btk is fully occupied by the inhibitor in both as shown using a fluorescently labeled affinity probe. […] The activity of Btk inhibitors in the cell lines studied herein are also characterized by comparing signal transduction profiles (Btk, PLCγ, ERK, NF-kB, AKT), cytokine secretion profiles and mRNA expression profiles, both with and without BCR stimulation, and observed significant differences in these profiles that lead to clinical biomarkers that identify the most sensitive patient populations to Btk inhibitor treatment. See U.S. Pat. No. 7,711,492 and Staudt et al., Nature, Vol. 463, Jan. 7, 2010, pp. 88-92, the contents of which are incorporated by reference in their entirety.

For `C=CC(=O)N1CCC[C@@H](n2nc(-c3ccc(Oc4ccccc4)cc3)c3c(N)ncnc32)C1` [Compound 1, 1-((R)-3-(4-amino-3-(4-phenoxyphenyl)-1H-pyrazolo[3,4-d]pyrimidin-1-yl)piperidin-1-yl)prop-2-en-1-one], the pEC50 (read-out: EC50 1 hour pulse, growth of OCI-Ly10, 1 hour pulse) was 7.30 and the pEC50 (growth of OCI-Ly10, continuous exposure, read-out: EC50 continuous exposure) was 8.00.
